We go through five molecules from PMC6092981 (Bioinorganic Chemistry and Applications, 2018).

For test [1], the system named is Jurkat cells. In words: PI staining microscopy of Jurkat cells with 5 in the presence of inhibitors. It is filed as cell-based, human. The note with it: nicardipine 50 µM, verapamil 20 µM, 37°C 1 h, then 5 (35 µM) 24 h. On the procedure:
The cells were then washed twice with ice-cold PBS containing 0.5% FCS and 0.1% NaN3 and incubated with PI in PBS at room temperature for 10–15 min.

In test [2] the test system is Jurkat cells. In words: MTT assay of Jurkat cells in the presence of caspase, necroptosis and necrosis inhibitors. It is filed as cell-based, human. The note with it: Z-VAD-FMK 15 µM, 24 h, 37°C; for inhibition of cell death induced by 5: necrostatin-1 30 µM, IM-54 10 µM, 1 h pre-incubation, 5 75 µM, MTT.
Experimental: Jurkat cells (1.0 × 10^5 cells/mL) were incubated in 10% FCS RPMI 1640 medium (MTG-free) containing a solution Z-VAD-fmk (15 µM)/necrostatin-1 (30 µM)/IM-54 (10 µM)/(under 5% CO2 at 37°C for 1 h in 96-well plates (BD Falcon). Then, Ir complexes (75 µM) were added and incubated under 5% CO2 at 37°C for 24 h, and then 0.5% MTT reagent in PBS buffer (10 µL) was added to the cells and incubated under 5% CO2 at 37°C for 4 h. A formazan lysis solution (10% SDS in 0.01 N HCl) (100 µL) was added, and the resulting solution incubated overnight under the same conditions, followed by measurement of absorbance at 570 nm with a microplate reader (Bio-Rad).
For test [3], the target named is DR5 (immobilised on the QCM sensor chip) (UniProt O14763 56-440). The test can be described thus: 27 MHz quartz crystal microbalance (QCM); DR5 immobilised by EDC/NHS on a 3,3'-dithiodipropionic acid layer on the Au electrode, blocked with ethanolamine; analytes added in PBS, 25°C; apparent constants from the decrease in frequency, 1:1 complexation assumed, Kd = 1/Kapp. The note with it: both partners purified.

Structures can show the parent of a compound that is named as a salt. Where a SMILES comes first, the peptide text is derived from it. Where no end group is shown, it is not given here. The star is where a group is joined. Cbz = O=C(OCc1ccccc1)*; CH2F = FC* Where only a bound is given, the exact number is not on record here.

Take `COC(=O)C1=C(C)NC(C)=C(C(=O)OCCN(C)Cc2ccccc2)C1c1cccc([N+](=O)[O-])c1` (stereo not shown) [nicardipine, nicardipine hydrochloride]: the “inhibition of cell death induced by 5” value in the test with Jurkat cells [1] is recorded as “considerably inhibited”.
As to `COC(=O)C[C@H](NC(=O)[C@H](C)NC(=O)[C@@H](NC(=O)OCc1ccccc1)C(C)C)C(=O)CF` [Z-VAD-FMK, Z-Val-Ala-Asp(OMe) fluoromethylketone] (Cbz-Val-Ala-Asp(OMe)-CH2F), the “inhibition of cell death induced by 5” value with Jurkat cells [2] was “negligibly inhibited”. Moreover, the “inhibition of TRAIL-induced cell death” value with Jurkat cells [2] (TRAIL 150 ng/mL, MTT and flow cytometry (PI)) is “almost completely”.
Regarding `CN1C(=O)C(Cc2c[nH]c3ccccc23)NC1=S` (stereo not shown) [Necrostatin-1], in the test with Jurkat cells [2], the “inhibition of cell death induced by 5” value is “negligibly inhibited”.
Regarding `CCCCCNC1=C(c2cn(C)c3ccccc23)C(=O)N(C)C1=O` [IM-54], the “inhibition of cell death induced by 5” value with Jurkat cells [2] is reported as “negligibly inhibited”.

B1: Ir complex 2c (contains a KKGG peptide) (other)
peptide: KKGG
modifications: also: joined to a cyclometalated Ir(III) complex
notes: cationic peptide H2N-KKGG- on the Ir complex
Consider B1, for which, in test [3], the Ka was < 10000 M⁻¹ and the Kd was > 100 µM.
